According to patent publication US10945433B2, “Method for treating coffee rust, citrus black spot, citrus scab and banana black sigatoka diseases” (Bayer CropScience Aktiengesellschaft, priority 2015, dated 2021):
One block for each molecule: values may come before it.

What was measured:
[1] = log P determination by HPLC on reversed-phase column (EEC Directive 79/831 Annex V.A8); format: physicochemical
Experimental: In table 1, the log P values were determined in accordance with EEC Directive 79/831 Annex V.A8 by HPLC (High Performance Liquid Chromatography) on a reversed-phase column (C 18), using the method described below:
Temperature: 40° C.; Mobile phases: 0.1% aqueous formic acid and acetonitrile; linear gradient from 10% acetonitrile to 90% acetonitrile.
Calibration was carried out using unbranched alkan-2-ones (comprising 3 to 16 carbon atoms) with known log P values (determination of the log P values by the retention times using linear interpolation between two successive alkanones). lambda-max-values were determined using UV-spectra from 200 nm to 400 nm and the peak values of the chromatographic signals.

Mycosphaerella fijiensis = assay: Control of Black Sigatoka on banana crop, field trials; format: in vivo; details: for Number healthy Leaves 25DAT13: Trial B, untreated 8.7; for Number healthy Leaves 25DAT13 / Number healthy Leaves 2DAT7: per banana plant at end of trial; for Number healthy Leaves 2DAT7: Trial A, untreated 8.5
Experimental: Two field trials were implemented in 2013 in Costa Rica and Philippines to evaluate the performance of compounds against Mycosphaerella fijiensis infection on Banana.
A typical fungicide formulation containing 100 g of compound per liter was applied every 7 to 12 days in consecutive foliar sprays. The trials were carried out according to standard experimental practice with spay adjuvant and mineral oil used in tank mix as it is usual on banana plantation in each country.
Data are expressed in Number of healthy leaves present at the end of the trial on each Banana plant (more leaves present mean better quantity and quality of harvest).

Elsinoe fawcettii = assay: Control of scab (Elsinoe fawcettii) on citrus crop, field trials; format: in vivo; details: 3000 L/Ha
From the text: (§1) Five field trials were implemented in South Africa, Brazil and Japan in 2013 and 2014 to evaluate the performance of compounds against two main diseases having high effect on marketable yield: Elsinoe fawcettii and Guignardia citricarpa are hosted by many citrus species. Both are able to infest fruits and both are quarantine pathogens limiting the exportation outside of the growing countries. The protection against these two pathogens gives a clear advantage for farmers to be present on the export market.
(§2) The trials were carried out according to standard experimental practice to protect the canopy including fruits in each country. A typical fungicide formulation containing 100 g of compound per liter was applied in consecutive foliar sprays at 5 to 6 occasions every month to control black spot and at 1 to 3 occasions every 14 days to control Scab infections. Spray volumes vary from 2000 L to 3000 L/Ha.

Hemileia vastatrix = assay: Control of rust (Hemileia vastatrix) on coffee crop, field trials; format: in vivo; details: 50 g a.i./ha, coffee leaves, foliar sprays, vs untreated
Experimental: Four field trials were implemented in Brazil in 2013 and 2014 to evaluate the performance of compounds against Hemileia vastatrix on Coffee.
The trials were carried out according to standard experimental practice to protect the canopy from the rust, responsible to defoliation and then yield losses. A typical fungicide formulation containing 100 g of compound per liter was applied in consecutive foliar sprays at 3 occasions every 30 to 50 days in most of the trials. Spray volumes vary from 400 L to 500 L/Ha.
Assessments were realized on leaves—Data are expressed in % efficacy against rust on leaves compared to untreated plants.

Guignardia citricarpa = assay: Control of black spot (Guignardia citricarpa) on citrus crop, field trials; format: in vivo; details: 2000 to 3000 L/Ha
From the text: as §1, §2

- logP [1]: 4.36
Molecule: N-cyclopropyl-3-(difluoromethyl)-5-fluoro-N-(2-isopropylbenzyl)-1-methyl-1H-pyrazole-4-carbothio-amide [Compound A20]

- chromatographic logP ([1]; reversed-phase C18 HPLC column, HPLC, reversed-phase C 18, 40° C., 0.1% aqueous formic acid and acetonitrile gradient): 3.14
Molecule: CCc1ccc(F)cc1CN(C(=O)c1c(C(F)F)nn(C)c1F)C1CC1 [Compound A6, N-cyclopropyl-3-(difluoromethyl)-N-(2-ethyl-5-fluorobenzyl)-5-fluoro-1-methyl-1H-pyrazole-4-carboxamide]

Molecule: O=C(Nc1ccccc1-c1ccc(Cl)cc1)c1cccnc1Cl [Boscalid, reference compound]
- Number healthy Leaves 25DAT13 (Mycosphaerella fijiensis; 150 g a.i./ha): 13.1

Molecule: CC(C)c1ccc(Cl)cc1CN(C(=O)c1c(C(F)F)nn(C)c1F)C1CC1 [Compound A5, N-(5-chloro-2-isopropylbenzyl)-N-cyclopropyl-3-(difluoromethyl)-5-fluoro-1-methyl-1H-pyrazole-4-carboxamide]
- % Efficacy (Abbott) (Elsinoe fawcettii; Trial A, 2.5 g a.i./100 L): 96%
- % Efficacy (Abbott) (Elsinoe fawcettii; Trial A, 5 g a.i./100 L): 95%
- % Efficacy (Abbott) (Elsinoe fawcettii; Trial B, 2.5 g a.i./100 L): 92%
- % Efficacy (Abbott) (Elsinoe fawcettii; Trial B, 5 g a.i./100 L): 70%
- % Efficacy (Abbott) (Hemileia vastatrix; Trial A): 84%
- % Efficacy (Abbott) (Hemileia vastatrix; Trial B): 61%
- % Efficacy (Abbott) (Hemileia vastatrix; Trial C): 95%
- % Efficacy (Abbott) (Hemileia vastatrix; Trial D): 73%
- average gain in leaves per plant (Mycosphaerella fijiensis; 6.25 g ai/ha, banana, Black Sigatoka): about +3 leaves per plant
- Number healthy Leaves 2DAT7 (Mycosphaerella fijiensis; 6.25 g a.i./ha): 11.5
- Number healthy Leaves 2DAT7 (Mycosphaerella fijiensis; 12.5 g a.i./ha): 12.2
- Number healthy Leaves 2DAT7 (Mycosphaerella fijiensis; 25 g a.i./ha): 12
- Number healthy Leaves 25DAT13 (Mycosphaerella fijiensis; 6.25 g a.i./ha): 13.4
- Number healthy Leaves 25DAT13 (Mycosphaerella fijiensis; 12.5 g a.i./ha): 14.4
- Number healthy Leaves 25DAT13 (Mycosphaerella fijiensis; 25 g a.i./ha): 16.2
- % Efficacy (Abbott) (Guignardia citricarpa; Trial A, 10 g a.i./100 L): 73%
- % Efficacy (Abbott) (Guignardia citricarpa; Trial A, 15 g a.i./100 L): 70%
- % Efficacy (Abbott) (Guignardia citricarpa; Trial B, 10 g a.i./100 L): 72%
- % Efficacy (Abbott) (Guignardia citricarpa; Trial B, 15 g a.i./100 L): 83%
- % Efficacy (Abbott) (Guignardia citricarpa; Trial C, 10 g a.i./100 L): 91.3%
- % Efficacy (Abbott) (Guignardia citricarpa; Trial C, 15 g a.i./100 L): 93.9%
